Assay results from patent publication US20260356830A1, “COMPOUNDS FOR MODULATING RET PROTEIN” (Bristol-Myers Squibb Company, priority 2022, published 2026).

Target: T1, CCDC6-RET (Homo sapiens, UniProt P07949+Q16204+Q96SW2)
T1 construct: CCDC6 (natural N-terminal fusion partner, UniProt Q16204); endogenous in cells; host or cells: TPC-1 (parental, papillary thyroid carcinoma)
Test: Cellular RET degradation, AlphaLISA, TPC-1 cell line
Assay type: cell-based
Conditions: for Dmax: TPC1, human, 24 h, read-out: Cell Density TPC-1/CCDC6-RET Ymax %; for DC50: read-out: Cell Density TPC-1/CCDC6-RET DC50, half-maximal degradation concentration, TPC-1 (CCDC6-RET), 24 hrs
In short: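 Luminescent AlphaLISA read of RET abundance in lysates after 24 h compound exposure (37 °C, 2% FBS DMEM) of CCDC6-RET-bearing TPC-1 cells. % degradation relative to DMSO (high) and media (low) controls, fitted to 4-parameter logistic curve for DC50 and Ymax.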

T1 sequence (Q16204+P07949 fused): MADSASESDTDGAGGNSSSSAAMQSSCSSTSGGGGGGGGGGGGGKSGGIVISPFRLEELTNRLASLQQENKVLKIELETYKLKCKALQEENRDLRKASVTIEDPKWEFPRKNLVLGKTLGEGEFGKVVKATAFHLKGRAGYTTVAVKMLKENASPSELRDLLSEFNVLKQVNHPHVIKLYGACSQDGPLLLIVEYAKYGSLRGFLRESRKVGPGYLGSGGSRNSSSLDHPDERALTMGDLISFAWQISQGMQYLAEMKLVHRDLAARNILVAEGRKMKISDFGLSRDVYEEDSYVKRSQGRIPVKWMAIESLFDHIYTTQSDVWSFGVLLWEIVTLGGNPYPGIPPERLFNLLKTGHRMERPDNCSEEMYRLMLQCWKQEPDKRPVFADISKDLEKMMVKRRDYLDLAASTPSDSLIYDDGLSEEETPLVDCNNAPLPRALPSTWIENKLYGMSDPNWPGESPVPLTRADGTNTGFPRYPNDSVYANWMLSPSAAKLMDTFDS
T1 sequence (Q96SW2 whole entry, the tested form may be a part): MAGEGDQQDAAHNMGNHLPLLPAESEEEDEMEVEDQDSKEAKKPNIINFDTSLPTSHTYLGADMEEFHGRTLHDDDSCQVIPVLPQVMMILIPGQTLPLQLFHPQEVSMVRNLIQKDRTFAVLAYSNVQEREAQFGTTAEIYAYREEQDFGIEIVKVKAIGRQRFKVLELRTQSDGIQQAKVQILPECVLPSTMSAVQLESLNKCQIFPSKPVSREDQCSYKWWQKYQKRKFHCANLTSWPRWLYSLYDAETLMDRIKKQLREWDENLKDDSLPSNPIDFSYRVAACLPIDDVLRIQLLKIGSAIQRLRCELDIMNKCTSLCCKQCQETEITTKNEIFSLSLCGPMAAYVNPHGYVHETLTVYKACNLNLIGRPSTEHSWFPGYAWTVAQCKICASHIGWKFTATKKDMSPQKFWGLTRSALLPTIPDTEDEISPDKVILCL
T1 sequence (Q16531 whole entry partner, the tested form may be a part): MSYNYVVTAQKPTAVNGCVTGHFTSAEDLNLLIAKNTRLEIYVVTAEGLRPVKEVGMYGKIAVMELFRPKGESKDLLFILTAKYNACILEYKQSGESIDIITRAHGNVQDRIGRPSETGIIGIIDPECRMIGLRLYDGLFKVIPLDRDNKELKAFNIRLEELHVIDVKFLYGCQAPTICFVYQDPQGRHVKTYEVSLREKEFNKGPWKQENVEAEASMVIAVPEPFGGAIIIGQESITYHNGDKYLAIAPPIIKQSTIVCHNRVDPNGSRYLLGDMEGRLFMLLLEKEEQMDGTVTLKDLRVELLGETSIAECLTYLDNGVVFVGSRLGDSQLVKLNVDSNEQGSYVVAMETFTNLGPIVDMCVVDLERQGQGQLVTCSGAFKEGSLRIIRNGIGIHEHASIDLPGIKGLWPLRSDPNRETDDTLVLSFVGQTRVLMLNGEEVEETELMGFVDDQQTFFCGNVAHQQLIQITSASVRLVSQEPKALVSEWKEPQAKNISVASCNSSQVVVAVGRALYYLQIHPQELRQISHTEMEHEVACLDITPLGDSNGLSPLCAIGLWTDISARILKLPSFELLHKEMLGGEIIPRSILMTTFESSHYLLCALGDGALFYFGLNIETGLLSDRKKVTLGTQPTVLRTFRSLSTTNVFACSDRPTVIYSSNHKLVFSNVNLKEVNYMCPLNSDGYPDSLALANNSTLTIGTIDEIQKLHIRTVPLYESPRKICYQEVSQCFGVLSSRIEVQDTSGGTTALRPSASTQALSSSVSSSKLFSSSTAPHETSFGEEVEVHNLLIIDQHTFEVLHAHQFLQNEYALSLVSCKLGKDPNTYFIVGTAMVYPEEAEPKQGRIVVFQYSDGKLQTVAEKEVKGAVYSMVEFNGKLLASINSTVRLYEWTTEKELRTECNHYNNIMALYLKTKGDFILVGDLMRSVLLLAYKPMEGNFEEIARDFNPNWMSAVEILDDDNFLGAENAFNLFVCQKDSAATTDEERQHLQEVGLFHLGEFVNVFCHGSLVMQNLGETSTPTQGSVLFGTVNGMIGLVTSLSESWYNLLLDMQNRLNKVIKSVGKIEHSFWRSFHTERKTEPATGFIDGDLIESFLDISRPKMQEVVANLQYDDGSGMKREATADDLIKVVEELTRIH

Row | Dmax [%] | DC50 [nM] | SMILES
1 | 60 to 90 | 10 to 100 | CCOc1cc(-c2ccc(N3CCC(CN(C(=O)CCCCCCN4CCN(c5ccc6c(c5)C(=O)N(C5CCC(=O)NC5=O)C6)CC4)C(C)C)(NC(=O)c4cc(F)ccc4F)CC3)nc2)c2c(C#N)cnn2c1 (stereo not drawn) [Example 169, N-[1-(5-{3-cyano-6-ethoxypyrazolo[1,5-a]pyridin-4-yl}pyridin-2-yl)-4-[(7-{4-[2-(2,6-dioxopiperidin-3-yl)-3-oxo-2,3-dihydro-1H-isoindol-5-yl]piperazin-1-yl}-N-(propan-2-yl)heptanamido)methyl]piperidin-4-yl]-2,5-difluorobenzamide]
2 | 60 to 90 | 100 to 2000 | CCOc1cc(-c2ccc(N3CCC(CN(C(=O)CCCCN4CCC(c5ccc6c(c5)C(=O)N(C5CCC(=O)NC5=O)C6)CC4)C(C)C)(NC(=O)c4cc(F)ccc4F)CC3)nc2)c2c(C#N)cnn2c1 (stereo not drawn) [Example 170, N-[1-(5-{3-cyano-6-ethoxypyrazolo[1,5-a]pyridin-4-yl}pyridin-2-yl)-4-[(5-{4-[2-(2,6-dioxopiperidin-3-yl)-3-oxo-2,3-dihydro-1H-isoindol-5-yl]piperidin-1-yl}-N-(propan-2-yl)pentanamido)methyl]piperidin-4-yl]-2,5-difluorobenzamide]
3 | > 90 | 2 to 10 | CCOc1cc(-c2ccc(N3CCC(CN(C(=O)CCCCCCN4CCC(c5ccc6c(c5)C(=O)N(C5CCC(=O)NC5=O)C6)CC4)C(C)C)(NC(=O)c4cc(F)ccc4F)CC3)nc2)c2c(C#N)cnn2c1 (stereo not drawn) [Example 171, N-[1-(5-{3-cyano-6-ethoxypyrazolo[1,5-a]pyridin-4-yl}pyridin-2-yl)-4-[(7-{4-[2-(2,6-dioxopiperidin-3-yl)-3-oxo-2,3-dihydro-1H-isoindol-5-yl]piperidin-1-yl}-N-(propan-2-yl)heptanamido)methyl]piperidin-4-yl]-2,5-difluorobenzamide]
